Results on one compound are retold here after patent EP1609872A1, “A method for selecting a gene involved in nisin resistance in bacteria” (Stichting voor de Technische Wetenschappen, priority 2004, dated 2005).

One test has as its system L. lactis IL1403 Nis^R. The test can be described thus: MIC determination (nisin sensitivity assay). It is filed as cell-based, Lactococcus lactis. The method, then:
Generation of nisin-resistant variants of L. lactis IL1403― A nisin stock solution was derived from nisaplin, (2.5% nisin, Aplin and Barrett, Danisco, Denmark) as described earlier (44). Nisin-resistant isogenic variants of L. lactis IL1403 were obtained by growing the strain in broth, while stepwise increasing the nisin concentration, as described before (29).
Nisin sensitivity assays― Sensitivity to nisin was determined essentially as described before (32) for the strains L. lactis NZ9000, L. lactis NZ9000 ΔgalAMK, L. lactis MG1363 and L. lactis MG1363 ΔdltD (16). For the strains of L. lactis NZ9000 (pNZ8048) and L. lactis NZ9000 (pJK1), the cells were diluted 50-fold in fresh medium. At an OD600 of 0.2 the cells of both cultures were induced with 4 µg/L nisin for 2 h. Nisin induction of PnisA in the pNZ8048 derivatives was performed as described by de Ruyter et al. (12). Outgrowth in all wells was determined at the moment when wells containing cells without nisin had reached an OD595 of 0.8, measured in an ELISA micro titer plate reader (Spectramax plus 384, Molecular Devices, Wageningen, the Netherlands). MIC values were calculated from the lowest concentration of nisin at which growth of the test strain was inhibited.

In another test the test system is M. flavus Nis^R. Put plainly: Determination of the Minimal Inhibitory Concentration (Example 2). It is filed as cell-based, Micrococcus flavus. The conditions noted are these: cross-resistance of the Nis^R strains. Here is the method:
M. flavus and L. lactis were grown overnight at their optimum growth conditions. The Nis^R variants were grown in the presence of nisin (3 mg/L). The MIC values were estimated essentially as described before (23).

With `C=C1NC(=O)[C@@H]2NC(=O)[C@H](CC(C)C)NC(=O)[C@H](NC(=O)[C@@H]3CS[C@@H](C)[C@@H](NC(=O)[C@H](Cc4ccccc4)NC(=O)[C@@H]4NC(=O)[C@@H](N)CS[C@H]4C)C(=O)N[C@@H](CC(C)C)C(=O)N4CCC[C@H]4C(=O)NCC(=O)NCC(=O)NCC(=O)NCC(=O)N[C@@H](C(C)C)C(=O)N3)[C@H](C)SC[C@H](NC(=O)[C@H](CCC(=O)O)NC1=O)C(=O)N[C@@H]([C@@H](C)CC)C(=O)N/C=C\S[C@H]2C` [Mersacidin, mersacidin], the cross-resistance entry with L. lactis IL1403 Nis^R is given as “no cross-resistance”. Further, the “change in MIC in the nisin resistant strain” value in the test with M. flavus Nis^R is reported as “No change”.
